According to ChEMBL document CHEMBL1129775, “Synthesis and evaluation of novel 1,5-Benzodiazepines as potent and selective CCK-B ligands. Effect of the substitution of the N-5 phenyl with alkyl groups” (Bioorg Med Chem Lett, 1996):

Columns and labels:
[1] = biological target: T1, Cholecystokinin receptor type A (Rattus norvegicus, UniProt P30551); experiment: Evaluated in vitro for Cholecystokinin type A receptor affinity by measuring its ability to displace tritiated CCK-8S bound on rat pancreas Cholecystokinin type A receptor
T1 sequence (P30551 whole entry): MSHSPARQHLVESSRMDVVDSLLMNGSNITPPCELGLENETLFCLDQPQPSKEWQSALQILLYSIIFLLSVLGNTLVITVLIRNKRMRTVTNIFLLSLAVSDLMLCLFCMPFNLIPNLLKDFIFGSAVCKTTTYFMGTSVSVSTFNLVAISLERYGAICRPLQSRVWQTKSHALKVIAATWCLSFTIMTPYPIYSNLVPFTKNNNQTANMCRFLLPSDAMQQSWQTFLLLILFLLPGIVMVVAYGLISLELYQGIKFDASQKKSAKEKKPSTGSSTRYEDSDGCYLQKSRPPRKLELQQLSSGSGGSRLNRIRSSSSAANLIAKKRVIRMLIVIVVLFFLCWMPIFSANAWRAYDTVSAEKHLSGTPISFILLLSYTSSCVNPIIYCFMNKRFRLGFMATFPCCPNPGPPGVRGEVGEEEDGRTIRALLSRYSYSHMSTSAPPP

Rattus norvegicus = organism: Rattus norvegicus; experiment: Ratio of CCK-B receptor affinity and CCK-A receptor affinity

Row | Ki [1] | Ratio (Rattus norvegicus) | Structure (SMILES)
1 | 1100 nM | 26 | O=C(NC1C(=O)N(CC23CC4CC(CC(C4)C2)C3)c2ccccc2N(C2CCCCC2)C1=O)Oc1ccccc1 (stereo unspecified)
2 | 61.7 nM | 26 | CC(C)CCN1C(=O)C(NC(=O)Nc2ccccc2)C(=O)N(CCC(C)C)c2ccccc21
3 | 240 nM | 22 | O=C(Nc1cccc(Cl)c1)NC1C(=O)N(CC23CC4CC(CC(C4)C2)C3)c2ccccc2N(C2CCCCC2)C1=O (stereo unspecified)
4 | 2000 nM | 58 | O=C(Nc1ccccc1)NC1C(=O)N(CC23CC4CC(CC(C4)C2)C3)c2ccccc2N(CC23CC4CC(CC(C4)C2)C3)C1=O (stereo unspecified)
5 | 794 nM | 28 | CC(C)CCN1C(=O)C(NC(=O)Oc2cccc(N(C)C)c2)C(=O)N(CCC(C)C)c2ccccc21
6 | 229 nM | – | CC(CC1CCCC1)N1C(=O)C(NC(=O)Nc2ccccc2)C(=O)N(C(C)CC2CCCC2)c2ccccc21 (stereo unspecified)
7 | 1410 nM | 42 | CC(C)CCN1C(=O)C(NC(=O)Oc2ccccc2)C(=O)N(CC23CC4CC(CC(C4)C2)C3)c2ccccc21 (stereo unspecified)
8 | 288 nM | 209 | CC(C)CCN1C(=O)C(NC(=O)Nc2ccccc2)C(=O)N(CC23CC4CC(CC(C4)C2)C3)c2ccccc21 (stereo unspecified)

Row | Structure (SMILES) | Ki [1] | Ratio (Rattus norvegicus)
9 | O=C(Nc1ccccc1)NC1C(=O)N(CC23CC4CC(CC(C4)C2)C3)c2ccccc2N(C2CCCCC2)C1=O (stereo unspecified) | 562 nM | 234
10 | CC(C)CCN1C(=O)C(NC(=O)Nc2ccccc2)C(=O)N(Cc2ccccc2)c2ccccc21 (stereo unspecified) | 66.1 nM | 17
11 | O=C(Nc1ccccc1)N[C@@H]1C(=O)N(CC23CC4CC(CC(C4)C2)C3)c2ccccc2N(c2ccccc2)C1=O (single isomer, unassigned; (+)) | 1120 nM | –
12 | CC(C)CCN1C(=O)C(NC(=O)Nc2cccc(N(C)C)c2)C(=O)N(CCC(C)C)c2ccccc21 | 83.2 nM | 32
13 | CC(C)CCN1C(=O)C(NC(=O)Oc2cccc(N(C)C)c2)C(=O)N(CC23CC4CC(CC(C4)C2)C3)c2ccccc21 (stereo unspecified) | 1580 nM | 209
14 | CC(C)CCN1C(=O)C(NC(=O)Nc2cccc(N(C)C)c2)C(=O)N(CC23CC4CC(CC(C4)C2)C3)c2ccccc21 (stereo unspecified) | 955 nM | 170
